The results in this text go back to PubChem BioAssay (NCI).

Some test systems named below: NCI/ADR-RES ovarian; UACC-62 melanoma; MOLT-4 leukemia; MCF7 breast; TK-10 renal; M14 melanoma; K-562 leukemia; SN12C renal; UO-31 renal; T-47D breast.
What all share (assay): inhibition of tumour cell growth, NCI panel, 48 h

Where “and” joins values, the source holds several entries; their conditions need not be identical. Identical values can stand only once.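 1) Cells in 96-well plates. 2) Compound, 48 h, 5 concentrations. 3) Linear interpolation between surrounding doses. 4) Unreached endpoint = highest concentration. Abbreviation: GI50, concentration required for 50% inhibition of growth. Definition used: TGI = concentration required for complete inhibition of growth.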

For the molecule `O=C1CCC(N2C(=O)c3cccc(NCCOCCOCCNC(=O)c4cc5c(o4)C(=O)c4ccccc4C5=O)c3C2=O)C(=O)N1` (stereo not given), the GI50 is 17.1 µM with NCI/ADR-RES ovarian; 1.46 µM in the assay with UACC-62 melanoma; 2.73 µM in the assay on MOLT-4 leukemia; 1.35 µM in the assay with MCF7 breast; 3.81 µM in the assay on TK-10 renal; 1200 nM in the assay with M14 melanoma. The GI50 in the assay with K-562 leukemia is 2550 nM; with SN12C renal it was 1.54 µM; in the assay with UO-31 renal it was 3510 nM; with T-47D breast it was 2.46 µM. For the same molecule, the TGI in the assay with NCI/ADR-RES ovarian was found to be 62.1 µM; in the assay with UACC-62 melanoma it was 2.98 µM; in the assay with MOLT-4 leukemia, 7.11 µM; in the assay on MCF7 breast it was 3.54 µM; in the assay on TK-10 renal it was 9.08 µM; in the assay with M14 melanoma, 2.6 µM. The TGI with K-562 leukemia turned out to be 12.7 µM; in the assay on SN12C renal, 2.92 µM; with UO-31 renal, 12.6 µM; in the assay with T-47D breast it was 8.05 µM.
With `COc1ccc2c(c1)c(-c1ccc(-c3cn(C)c4ccc(OC)cc34)o1)cn2C`, the GI50 with NCI/ADR-RES ovarian was 3.86 µM; with UACC-62 melanoma it was 3.81 µM; in the assay with MOLT-4 leukemia it was above 100 µM; in the assay on MCF7 breast it was 17.3 µM; in the assay on TK-10 renal it was 11 µM; with M14 melanoma it was 16700 nM. Moreover, the GI50 in the assay with K-562 leukemia is 2860 nM; in the assay on SN12C renal it was 21.6 µM; with UO-31 renal, 3600 nM; with T-47D breast it was 2.72 µM. Besides, the TGI with NCI/ADR-RES ovarian was 16.6 µM; in the assay on UACC-62 melanoma it was 15.9 µM; with MOLT-4 leukemia, above 100 µM; in the assay on MCF7 breast it was above 100 µM; with TK-10 renal it was above 100 µM; in the assay on M14 melanoma it was above 100 µM. Besides, the TGI in the assay on K-562 leukemia is above 100 µM; in the assay with SN12C renal, above 100 µM; in the assay on UO-31 renal, 15 µM; in the assay on T-47D breast, 11.4 µM.
Regarding `S=C1SCN(C2CCCCCCCCCCC2)CN1C1CCCCCCCCCCC1`, the TGI with NCI/ADR-RES ovarian, with UACC-62 melanoma, in the assay with MOLT-4 leukemia, in the assay with MCF7 breast, with TK-10 renal and in the assay with M14 melanoma was above 100 µM throughout. For the same molecule, the TGI with K-562 leukemia, in the assay on SN12C renal, with UO-31 renal and in the assay with T-47D breast was above 100 µM throughout.
As for `CN1CCN(Cc2ccc(NC(=O)c3cccc(C#Cc4c(N)ncc5ccc(F)cc45)c3)cc2C(F)(F)F)CC1`, the GI50 with NCI/ADR-RES ovarian was 1.02 µM; with UACC-62 melanoma, 0.698 µM; in the assay with MOLT-4 leukemia, 0.681 µM; in the assay on MCF7 breast, 0.768 µM; in the assay on TK-10 renal, 1.14 µM; in the assay on M14 melanoma it was 463 nM. Besides, the GI50 with K-562 leukemia is 5 nM; in the assay with SN12C renal, 0.663 µM; in the assay on UO-31 renal it was 533 nM; in the assay on T-47D breast it was 1.05 µM. In addition, the TGI was 2.55 µM with NCI/ADR-RES ovarian; 1.4 µM with UACC-62 melanoma; 1.63 µM in the assay on MOLT-4 leukemia; 1.53 µM in the assay with MCF7 breast; 2.35 µM with TK-10 renal; 1.24 µM in the assay with M14 melanoma. The TGI stood at 0.674 µM in the assay with K-562 leukemia, 1.44 µM in the assay on SN12C renal, 1.27 µM in the assay on UO-31 renal and 2.65 µM with T-47D breast.
As to `CSC1SCC2C(=O)N(C)C(C(C)C)C(=O)OCC(NC(=O)c3cnc4ccccc4n3)C(=O)NC(C)C(=O)N(C)C1C(=O)N(C)C(C(C)C)C(=O)OCC(NC(=O)c1cnc3ccccc3n1)C(=O)NC(C)C(=O)N2C` (stereo not given), the GI50 was 0.0238 µM in the assay on NCI/ADR-RES ovarian; below 0.001 µM in the assay on UACC-62 melanoma; below 0.001 µM in the assay with MOLT-4 leukemia; below 0.001 µM in the assay on MCF7 breast; < 0.001 µM and 0.0075 µM in the assay with TK-10 renal; below 1 nM with M14 melanoma. Also, the GI50 in the assay on K-562 leukemia was below 1 nM; in the assay on SN12C renal, below 0.001 µM; in the assay on UO-31 renal it was 3.28 nM; with T-47D breast, below 0.001 µM. In addition, the TGI was 0.222 µM and 1.16 µM and 1.41 µM with NCI/ADR-RES ovarian; 0.00121 µM and 0.00346 µM in the assay on M14 melanoma.
`O=C1c2ccccc2-c2c1c1ccc([N+](=O)[O-])cc1c(=O)n2CCCn1ccnc1`: the GI50 in the assay with NCI/ADR-RES ovarian is 0.0465 µM; with UACC-62 melanoma it was 0.0116 µM; in the assay with MOLT-4 leukemia, 2.12 µM; with MCF7 breast, below 0.018 µM; in the assay on TK-10 renal it was 1.16 µM; in the assay with M14 melanoma it was 106 nM. Also, the GI50 in the assay with K-562 leukemia was 886 nM; in the assay on SN12C renal it was 0.0153 µM; in the assay with UO-31 renal, 724 nM. Also, the TGI in the assay on NCI/ADR-RES ovarian came out at 0.366 µM; in the assay with UACC-62 melanoma it was 0.0348 µM; in the assay on MOLT-4 leukemia, 4.64 µM; in the assay with MCF7 breast it was 4.24 µM; in the assay with TK-10 renal it was 9.31 µM; in the assay with M14 melanoma, 0.453 µM. Further, the TGI with K-562 leukemia is 5.16 µM; in the assay on SN12C renal it was 0.0378 µM; with UO-31 renal it was 2.62 µM; in the assay on T-47D breast, above 33.3 µM.
`CNC(=S)N(C1CCCCC1)C1CCCCC1`: the TGI with NCI/ADR-RES ovarian, in the assay on UACC-62 melanoma, in the assay on MOLT-4 leukemia, in the assay on MCF7 breast, in the assay on TK-10 renal and in the assay with M14 melanoma was above 100 µM each time. Moreover, the TGI in the assay on K-562 leukemia, in the assay with SN12C renal, in the assay with UO-31 renal and with T-47D breast was above 100 µM each time.
Take `NC(Cc1c[nH]c2cc(F)ccc12)C(=O)O` (stereo not given): the GI50 was 890 µM in the assay on NCI/ADR-RES ovarian; 1700 µM with UACC-62 melanoma; 1340 µM in the assay with MOLT-4 leukemia; 1290 µM with MCF7 breast; above 2500 µM with TK-10 renal; 951000 nM in the assay on M14 melanoma. The GI50 is 912000 nM with K-562 leukemia, 1330 µM with SN12C renal and above 2500 µM with T-47D breast. Moreover, the TGI with NCI/ADR-RES ovarian, with UACC-62 melanoma, with MOLT-4 leukemia, with MCF7 breast, in the assay on TK-10 renal and in the assay with M14 melanoma was above 2500 µM each time. For the same molecule, the TGI with K-562 leukemia, in the assay on SN12C renal, in the assay with UO-31 renal and in the assay on T-47D breast was above 2500 µM each time.
For the molecule `COC1C(O)CC(OC2CC(OC3CC(O[C@@H]4C(=O)c5c(cc6cc(OC7CC(OC8CC(O)C(O)C(C)O8)C(O)C(C)O7)c(C)c(O)c6c5O)CC4[C@H](OC)[C@@H](O)C(C)=O)OC(C)C3O)OC(C)C2O)OC1C` (stereo not given in full), the GI50 in the assay with NCI/ADR-RES ovarian was above 28.2 µM; with UACC-62 melanoma, 0.00977 µM; with MOLT-4 leukemia, 0.00749 µM; with MCF7 breast it was 0.00649 µM; in the assay on TK-10 renal, 0.0257 µM; with M14 melanoma, 20.2 nM. The GI50 was 16.3 nM in the assay on K-562 leukemia, 0.0192 µM in the assay on SN12C renal, 31.5 nM in the assay on UO-31 renal and 0.0124 µM with T-47D breast. The TGI in the assay on NCI/ADR-RES ovarian was above 33.3 µM; in the assay on UACC-62 melanoma, 0.036 µM; in the assay on MOLT-4 leukemia, 0.34 µM; with MCF7 breast, above 33.3 µM; in the assay with TK-10 renal, above 33.3 µM; in the assay with M14 melanoma, 3.91 µM. Moreover, the TGI in the assay with K-562 leukemia was above 33.3 µM; in the assay on SN12C renal it was above 33.3 µM; with UO-31 renal, 11.3 µM; with T-47D breast, 0.307 µM.
